This note sets out measurements from US12215460B2, “Methods of microbial control” (Clean Chemistry, Inc., priority 2015, dated 2025).

The nature of data set [1]: Bleaching of Kraft pulp, hand sheet tests.
Data set [2] can be described thus: TOX formation tests in pulp bleaching. How it is done: […]. The pulp slurry was put into a 1 L glass beaker in a heated water bath. The beakers were fitted with liquid-tight covers to minimize evaporative losses of water and oxidants. After the pulp slurry was heated the oxidant solution and additional salt water was added to make a final composition of about 855 g water, 45.0 g of air-dry pulp, 8.55 g NaCl and the oxidant. The oxidant was mixed into the pulp slurry thoroughly with a stainless steel spatula for several minutes and then mixed periodically throughout the 2 hour bleaching period. The pH of the slurry was left at the natural pH created by each oxidant in the presence of the pulp.
The amount of oxidant used in each test was enough to partially bleach the amount of lignin present so that the oxidant was the limiting reagent. When peracetate oxidant was combined with Kraft pulp the evolution of some gas was observed accompanied by rapid bleaching that was clearly visible within the first few minutes. […]. After 2 hours at 50° C. the pulp slurries were vacuum filtered through a Buchner funnel over a medium porosity filter paper. There was no residual oxidant present in the filtrates. The four filtrate solutions recovered were put into amber glass bottles and preserved with sulfuric acid for total organic halide analyses, which were conducted by a third party laboratory.

The next data set concerns microbes. Description: Microbial control in water at slightly alkaline pH, oxidant comparison. It counts as cell-based. From the text: In some embodiments, microbial control in water at slightly alkaline pH was compared between peracetate oxidant, […] bleach, peracetic acid and […] dioxide. Alkaline pH is encountered in a variety of applications where microbial control and sanitization is needed, including pulp and paper processing, cooling towers, water treatment and chill tanks in poultry processing. […].

The nature of another data set: ORP of oxidants at pH 7. It counts as physicochemical. As to conditions: 29 mM.
Data set [3] can be described thus: Thermal activation in clean water at pH 8.5 and 50 C. In kind it is physicochemical. As to conditions: distilled water.
The conditions of data set [4]: flowback water, 22 C, pH 6.5; initial 80 mg/L (peracetate as PAA; PAA with 112 mg/L H2O2).
Where [5] appears, read: Entry 2, bleach time 30 min, 1.13 g/L PAA equiv., initial pH 8.2.
The mark [6] stands for this setting: Entry 8, 30 min, 4.0 g/L, initial pH 8.0.
Where [7] appears, read: Entry 9, 30 min, 4.0 g/L, initial pH 8.9.

Like-named read-outs stand apart in the source and are kept apart here.

As for `[O][Cl+][O-]` [chlorine dioxide], in data set [1] (setting [5]), the “Final ORP” value is 896 mV vs SHE and the “Final pH” value is on record as 6.4. Further, in data set [2], the “Normalized TOX” value was 17.7 mg/L per 1000 mg/L oxidant and the TOX stood at 17.7 mg/L. Besides, the “performance as antimicrobial disinfectant” value in the data set with microbes is “performed well”.

As to `OO` [hydrogen peroxide], the ORP result in “ORP of oxidants at pH 7” is “about 0.5 V (vs SHE)”.

In the case of `OCl` [hypochlorous acid], the ORP result in “ORP of oxidants at pH 7” is “over 1.1 V (vs SHE)”.

For `CC(=O)OO` [peracetic acid], the “Final ORP” value in data set [1] (Entry 7, 30 min, 4.0 g/L, initial pH 7.0) was found to be 502 mV vs SHE; in data set [1] (setting [6]), 406 mV vs SHE; in data set [1] (setting [7]) it was 253 mV vs SHE. The “Final pH” value was 7.0 in data set [1] (Entry 7, 30 min, 4.0 g/L, initial pH 7.0, stock 11.4% PAA and 15.6% H2O2); 8.0 in data set [1] (setting [6]); 8.8 in data set [1] (setting [7]). Further, in data set [2] (Kraft pulp 5% consistency, 1.0% NaCl, 50 C, 2 hours), the “Normalized TOX” value is 4.5 mg/L per 1000 mg/L oxidant. Also, the TOX in data set [2] (Kraft pulp 5% consistency, 1.0% NaCl, 50 C, 2 hours, initial 4000 mg/L peracetate (as PAA equivalents), 4000 PAA + 5400 H2O2, 1000 ClO2, blank 0.68) is recorded as 17.8 mg/L; in data set [4], “BDL (BDL = below detection limit, less than 0.05 mg/L)”. Moreover, the “time peracetic acid and hydrogen peroxide concentrations were stable” value in data set [3] was “about 90 minutes”. The ORP entry in data set [3] (constant during the test) is reported as “around 280 mV vs SHE”. In addition, the “performance as antimicrobial disinfectant” value in the data set on microbes is given as “lowest performance”.

Take sodium peracetate [peracetate oxidant]: in data set [2], the “total organic halides (TOX) relative to chlorine dioxide” value is reported as “about ten times less”.
